“Also recorded” adds a separate entry of the source.
How the values were obtained:
[1] = target: T1, human PAR2 (Homo sapiens, UniProt P55085); assay: Reversal by PAR2 antagonist of SLIGKV-OH-mediated inhibition of TNFα-stimulated JNK, PAR2 NCTC2544 cells; format: cell-based; conditions: 10 μM K14585 30 min, SLIGKV-OH 100 μM 30 min, then TNFα
T1 construct: expressed in transfected cells
T1 sequence (P55085 26-397): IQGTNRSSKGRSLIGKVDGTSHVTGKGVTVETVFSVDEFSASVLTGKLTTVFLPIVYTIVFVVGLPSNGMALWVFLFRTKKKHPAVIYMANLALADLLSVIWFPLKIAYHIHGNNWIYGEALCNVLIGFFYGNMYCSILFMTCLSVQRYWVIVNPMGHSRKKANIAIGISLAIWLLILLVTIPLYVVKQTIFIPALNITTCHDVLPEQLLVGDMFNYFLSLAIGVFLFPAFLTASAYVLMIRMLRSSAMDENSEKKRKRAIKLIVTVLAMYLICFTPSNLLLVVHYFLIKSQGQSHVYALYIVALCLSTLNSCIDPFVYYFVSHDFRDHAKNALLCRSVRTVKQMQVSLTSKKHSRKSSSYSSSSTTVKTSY
Procedure: (§1) Human skin epithelial cells NCTC2544 were maintained in M199 medium with Earl's salt supplement, 10% (v/v) foetal calf serum, L-glutamine (27 µg/ml), penicillin (250 U/ml), and streptomycin (25 mg/ml). NCTC2544 cells stably expressing human PAR2 (clone G) were maintained in complete M199 medium containing 400 μg/ml of Geneticin for selection pressure and passaged using Versene (2% EDTA/PBS). EAhy-926 cells were produced by hybridizing human umbilical vein endothelial cells (HUVECs) with the epithelial cell line A549 [27] and maintained in Dulbecco's Modified Eagle's Medium (DMEM) supplemented with 10% foetal calf serum (FCS), hypoxanthine/aminopterin/thymidine (HAT supplement), penicillin (250 U/ml) and streptomycin (25 mg/ml), and cells were passaged using Versene.
(§2) To measure JNK activity, cells were stimulated as appropriate and the reaction terminated by rapid aspiration and the addition of ice-cold PBS. The cells were solubilised in 20 mM HEPES buffer, pH 7.7, containing 50 mM NaCl, 0.1 mM EDTA, 0.1 mM Na3VO4, 0.1 mM PMSF, 10 mg/ml aprotinin, 10 mg/ml leupeptin, and 1% (w/v) Triton X-100. Lysates were clarified by centrifugation for 5 min at 13,000 rpm and equal amounts of protein were incubated with 20 μg of GST-c-Jun-(5–89) immobilized on glutathione-Sepharose at 4 °C for 3 h. Beads were then washed three times in solubilisation buffer and twice in 25 mM HEPES buffer, pH 7.6, containing 20 mM β-glycerophosphate, 0.1 mM NaV3O4, and 2 mM dithiothreitol. Precipitates were then incubated with the same buffer containing 25 μM/0.5 μCi of ATP/[γ-^32P] ATP in a final volume of 30 µl at 30 °C for 30 min. The reactions were terminated by the addition of 4× SDS-sample buffer and aliquots of each sample subjected to electrophoresis on 11% SDS-polyacrylamide gel electrophoresis. Phosphorylation of GST-c-Jun was then determined by autoradiography.
Fig. 3 Inhibition of TNFα-stimulated JNK activity is dependent upon PAR2 activation. […] Samples were assessed for JNK activity or phospho-JNK content as outlined in the Methods section. […]

[2] = test system: p38 MAP kinase; conditions: higher concentrations, ref [37]; cited from earlier work
Text: Whilst this present study focuses on two agonist effects it is the first study to raise this potential when examining JNK activation. This model was also supported when examining the effect of the novel PAR2 antagonist K-14585 [33]. […] Taken together, these findings indicate two distinct agonist-directed signalling pathways driven by SLIGKV-OH, one dependent upon ...

[3] = target: T1, human PAR2; assay: JNK activity, agent alone, PAR2 NCTC2544 cells (clone G); format: cell-based; conditions: higher concentrations, alone; not shown
Procedure: as §1
To measure JNK activity, cells were stimulated as appropriate and the reaction terminated by rapid aspiration and the addition of ice-cold PBS. The cells were solubilised in 20 mM HEPES buffer, pH 7.7, containing 50 mM NaCl, 0.1 mM EDTA, 0.1 mM Na3VO4, 0.1 mM PMSF, 10 mg/ml aprotinin, 10 mg/ml leupeptin, and 1% (w/v) Triton X-100. Lysates were clarified by centrifugation for 5 min at 13,000 rpm and equal amounts of protein were incubated with 20 μg of GST-c-Jun-(5–89) immobilized on glutathione-Sepharose at 4 °C for 3 h. […] Phosphorylation of GST-c-Jun was then determined by autoradiography. […]
Fig. 4 Concentration response effects of PAR2 peptides for activation of JNK and inhibition of TNFα-stimulated JNK. PAR2 expressing NCTC2544 cells (clone G) were incubated with increasing concentrations of SLIGKV-OH or 2f-LIGKV-OH for 30 min and assayed for JNK activity (Panel B) or stimulated for a further 30 min with TNFα (+) before JNK activity was assessed (Panel A). Samples were assessed for JNK activity as outlined in the Methods section. Gels from JNK assays were quantified (Panel C). Each value represents the mean ± s.e.m from at least 4 experiments and data was quantified by densitometry.

[4] = test system: PKC; assay: TNFα-stimulated JNK phosphorylation, PKC activator / PKC inhibitor, PAR2 NCTC2544 cells; format: cell-based, human; conditions: 100 nM PMA
Procedure: as §1
(§3) Proteins were separated by 10% SDS–PAGE and transferred onto nitrocellulose. The membranes were blocked for non-specific binding for 2 h in 2% BSA (w/v) diluted in NATT buffer (50 mM Tris–HCl, 150 mM NaCl, 0.2% (v/v) Tween-20). […]
Fig. 5 Pharmacological blockade of protein kinase C reverses PAR2 mediated inhibition of TNFα-stimulated JNK activation. […] Samples were assessed for JNK activity (Panels A and B) or phospho-JNK levels (Panel D) as outlined in the Methods section. Gels from JNK activity assays were quantified by densitometry (Panel C). […]

[5] = test system: TNFR1; conditions: ref [42,50]; cited from earlier work
Text: Upon activation TNFR1 associates with a number of proteins including TRADD, RIP, TRAF2, MADD and FADD [46]. Formation of this complex at the membrane allows TNFα to mediate an array of different signalling events, such as induction of apoptosis through the FADD-caspase arm or activation of MAP kinase and NFκB signalling via TRAF2. For example, TRAF2 contains a conserved C-terminal region termed the TRAF domain, which interacts with TRADD and an N-terminal ring finge ...

[6] = test system: PKC; assay: TNFα-stimulated JNK activity, PKC activator / PKC inhibitor, PAR2 NCTC2544 cells; format: cell-based, human; conditions: 100 nM PMA 30 min, TNFα 10 ng/ml 30 min
Procedure: as §1, §2
Where experimental data is shown as a blot, this represents one of at least 3 experiments and data represents the mean ± s.e.m. Statistical analysis was by one-way ANOVA with Dunnett's post test (*P < 0.05, **P < 0.01).
Fig. 5 Pharmacological blockade of protein kinase C reverses PAR2 mediated inhibition of TNFα-stimulated JNK activation. PAR2 expressing NCTC2544 cells (clone G) were pre-incubated with increasing concentrations of GF109203X (GFX) for 30 min then incubated for a further 30 min with 100 nM PMA (Panel A) or 30 nM trypsin (Panel B) prior to stimulation for a further 30 min with TNFα(+) (10 ng/ml). Samples were assessed for JNK activity (Panels A and B) or phospho-JNK levels (Panel D) as outlined in the Methods section. Gels from JNK activity assays were quantified by densitometry (Panel C). Each value represents the mean ± s.e.m from at least 4 experiments. ⁎⁎P < 0.01 compared to TNFα and trypsin stimulated.

[7] = test system: Gq/11; conditions: ref [29]; cited from earlier work
Text: Thus, DAG derived from Gq/11 activation is likely to drive PKC activation and subsequent inhibition of TNFα stimulated JNK activity. Previously, we have shown that Gq/11 plays a positive role in the regulation of PAR2 mediated NFκB p ...

[8] = test system: Gq/11; assay: Reversal by Gq/11 inhibitor of PAR2 mediated inhibition of TNFα-stimulated JNK activity, PAR2 NCTC2544 cells; format: cell-based, human; conditions: increasing concentrations YM254890 30 min, SLIGKV-OH 100 μM 30 min, TNFα 10 ng/ml 30 min
Procedure: as §1
To measure JNK activity, cells were stimulated as appropriate and the reaction terminated by rapid aspiration and the addition of ice-cold PBS. […] Phosphorylation of GST-c-Jun was then determined by autoradiography. […]
(§4) Fig. 6 Gq/11 is essential for PAR2 mediated inhibition of JNK activation by TNFα. […] Samples were assessed for phospho-JNK levels (Panels A and D) or JNK activity (Panel B) as outlined in the Methods section. Gels from JNK activity assays were quantified by densitometry (Panel C). […]

[9] = test system: Gq/11; assay: Reversal by Gq/11 inhibitor of PAR2 mediated inhibition of TNFα-stimulated JNK phosphorylation, PAR2 NCTC2544 cells; format: cell-based, human; conditions: 100 nM YM254890 30 min, SLIGKV-OH 100 μM 30 min, TNFα 10 ng/ml 30 min
Procedure: as §1
as §3, with “Tween-20). The blots were then incubated overnight with 50 ng/ml primary antibody diluted in 0.2% BSA (w/v) in NATT buffer.” for “Tween-20).”
as §4

[10] = test system: TNFR1/TRADD; assay: TNFR1/TRADD complex formation (TNFR1 immuno-precipitation, TRADD immuno-blot), PAR2 expressing cells; format: cell-based, human; conditions: 100 nM YM254890 or 3 μM GF109203X 30 min, peptide 100 μM 30 min, TNFα 10 ng/ml 30 min
Procedure: as §1
Proteins were separated by 10% SDS–PAGE and transferred onto nitrocellulose. The membranes were blocked for non-specific binding for 2 h in 2% BSA (w/v) diluted in NATT buffer (50 mM Tris–HCl, 150 mM NaCl, 0.2% (v/v) Tween-20). The blots were then incubated overnight with 50 ng/ml primary antibody diluted in 0.2% BSA (w/v) in NATT buffer. The blots were washed with NATT buffer for 90 min and incubated with HRP-conjugated secondary antibody (20 ng/ml in 0.2% BSA (w/v) diluted in NATT buffer) for 2 h. After a further 90 min wash, the blots were subjected to ECL reagent and exposed to Kodak X-ray film.
For immuno-precipitation of TNFR1, equal amounts of pre-cleared cell lysates were incubated in Tris–HCl buffer, pH 7.4, containing 50 mM NaCl, 1 mM EDTA, 1 mM EGTA, 1% (w/v) Triton X-100, and 0.5% (w/v) Nonidet P-40, with 2 μg TNFR1 antibody, pre-coupled to protein G, for 3 h. Lysates were recovered by sequential washes in solubilisation buffer and in the same buffer lacking detergents. Precipitates were assessed for TRADD or RIP content using Western blotting.
Fig. 7 PAR2 mediated TNFR1 adapter protein disruption in PAR2 expressing cells. In Panel A, cells were pre-treated with peptide (100 μM) or vehicle prior to stimulation with TNFα (10 ng/ml) for 30 min. Lysates were immuno-precipitated for TNFR1 and immuno-blotted for TRADD and/or RIP, as outlined in the Methods section. In Panel B cells were pre-treated with 100 nM YM254890 or 3 μM GF109203X for 30 min prior to pre-treatment with peptide (100 μM), for 30 min, then incubated for a further 30 min with TNFα (10 ng/ml). TNFR1 immuno-precipitates were immuno-blotted for TRADD. Each gel is representative of at least three experiments.

NCCCC[C@H](NC(=O)CNC(=O)Nc1ccc2c(c1)c(CN1CCCC1)cn2Cc1c(Cl)cccc1Cl)C(=O)N[C@@H](Cc1ccccc1)C(=O)NC(c1ccccc1)c1ccccc1 [K-14585]
reversal of SLIGKV-OH-mediated JNK inhibition (words) [1]: able to reverse the inhibition of JNK; also recorded: able to reverse PAR2 mediated inhibition of TNFα signalling
reversal of SLIGKV-OH-mediated JNK inhibition (words) ([1]; listed as K14585): inhibition was reversed by pre-incubation
reversal of SLIGKV-OH-mediated JNK inhibition (words) ([1]; listed as K14858): reversed
p38 MAP kinase activation by K14585 alone [2]: able to activate both JNK (not shown) and p38 MAP kinase
JNK activation by K14585 alone [3]: able to activate both JNK

CCCCCCCCCCCCCC(=O)O[C@@H]1[C@@H](C)[C@@]2(O)[C@@H](C=C(CO)C[C@]3(O)C(=O)C(C)=C[C@@H]23)[C@@H]2C(C)(C)[C@]12OC(C)=O [PMA]
effect of PKC activator on TNFα-stimulated JNK phosphorylation [4]: abolishing both JNK activity and phosphorylation
disruption of TNFR1 binding [5]: disrupt TNFR1 binding
effect of PKC activator on TNFα-stimulated JNK activity [6]: mimicked the inhibitory effect of SLIGKV-OH; also recorded: mimic the inhibitory effect of PAR2 activation; also recorded: abolishing both JNK activity and phosphorylation

YM254890
inhibition of trypsin and peptide mediated [^3H]IP accumulation [7]: very effective inhibitor
reversal of PAR2 mediated inhibition of JNK activity by Gq/11 inhibitor [8]: almost complete abrogation of peptide mediated inhibition; also recorded: complete reversal of PAR2 mediated JNK inhibition
reversal of PAR2 mediated inhibition of JNK activity by Gq/11 inhibitor ([8]; listed as YM25480): reversed PAR2 mediated inhibition
reversal of PAR2 mediated inhibition of JNK phosphorylation by Gq/11 inhibitor [9]: almost complete abrogation of peptide mediated inhibition of TNFα stimulated JNK phosphorylation
reversal of PAR2 mediated disruption of TNFR1/TRADD complex [10]: effectively reversed PAR2 mediated disruption
reversal of PAR2 mediated disruption of TNFR1/TRADD complex ([10]; listed as YM25480): reversed
